Results from US20100267561A1, “HERBICIDAL PYRIDAZINONE DERIVATIVES” (priority 2007, published 2010).

Columns and labels:
[1] = tested on: winter wheat (TRZAW, Triticum aestivum); assay: Test F mixtures with safener cloquintocet-mexyl, pre-/postemergence plant response; type: in vivo; settings: applied alone
Text: (§1) This test evaluated the effect of mixtures of Compound 3, Compound 11, or Compound 12 with the commercial crop safener cloquintocet-mexyl on three plant species. Seeds of test plants consisting of winter wheat (TRZAW, Triticum aestivum), winter barley (HORVX, Hordeum vulgare), and wild oat (AVEFA, Avena fatua) (a weed) were planted into a blend of loam soil and sand and treated preemergence with a directed soil spray using test chemicals formulated in a non-phytotoxic solvent mixture that included a surfactant. At the same time, plants selected from these crop and weed species were treated with postemergence applications of the test chemicals formulated in the same manner. Plants ranged in height from 2 to 18 cm (1- to 4-leaf stage) for postemergence treatments.
(§2) Plants were grown in a greenhouse using supplemental lighting to maintain a photoperiod of about 16 hours; daytime and nighttime temperatures were about 24-30° C. and 19-21° C., respectively. Balanced fertilizer was applied through the watering system. Treatments consisted of Compound 3, Compound 11, or Compound 12 and the above mentioned safener alone and in combination using a spray volume of 457 L/ha. Each treatment was replicated three times. Treated plants and controls were maintained in a greenhouse for 14 to 21 days, after which time all treated plants were compared to controls and visually evaluated. Plant response ratings were calculated as the means of the three replicates and are summarized in Tables F1 to F6, and are based on a scale of 0 to 100 where 0 is no effect and 100 is complete control. Because cloquintocet-mexyl alone caused no injury at the rates tested, the expected effect of a mixture of Compound 3 with cloquintocet-mexyl is the same as the observed effect of Compound 3 applied alone.

[2] = tested on: winter barley (HORVX, Hordeum vulgare); assay: as above; type: in vivo; settings: applied alone
Text: as §1, §2

[3] = tested on: wild oat (AVEFA, Avena fatua); assay: as above; type: in vivo; settings: applied alone
Text: as §1, §2

[4] = tested on: winter wheat (TRZAW, Triticum aestivum); assay: Test G mixtures of Compound 26 with crop safeners, postemergence plant response; type: in vivo; settings: applied alone
Experimental: (§3) This test evaluated the effect of mixtures of Compound 26 with commercial crop safeners cloquintocet-mexyl, mefenpyr-diethyl, and fenchlorazole-ethyl on three plant species. Seeds of winter wheat (TRZAW, Triticum aestivum), winter barley (HORVX, Hordeum vulgare), and wild oat (AVEFA, Avena fatua) (a weed) were planted into a silt loam soil. Plants from these seeds were treated postemergence using test chemicals formulated in a non-phytotoxic solvent mixture that included a surfactant. Plants ranged in height from 6 to 10 cm (2- to 3-leaf stage).
(§4) Plants were grown in a greenhouse using supplemental lighting to maintain a photoperiod of about 14 hours; daytime and nighttime temperatures were about 22-26° C. and 15-19° C., respectively. Balanced fertilizer was applied through the watering system. Treatments consisted of Compound 26 and the above mentioned safeners alone and in combination using a spray volume of 281 L/ha. Each treatment was replicated four times. Treated plants and controls were maintained in a greenhouse for 15 days, after which time all treated plants were compared to controls and visually evaluated. Plant response ratings were calculated as the means of the four replicates based on a scale of 0 to 100 where 0 is no effect and 100 is complete control and are summarized in Tables G1 to G3. Because the safeners alone caused no injury at the rates tested, the expected effect of a mixture of Compound 26 with a safener is the same as the observed effect of Compound 26 alone.
(§5) The highest application rate of each safener was tested alone to confirm the absence of herbicidal activity on the test species when appled postemergence at 125 g ai/ha. Therefore, an extrapolated result of zero for each safener alone at 16, 31, or 62 g ai/ha was used to calculate the mixture response of Compound 26 and these safener application rates.

[5] = tested on: winter barley (HORVX, Hordeum vulgare); assay: as above; type: in vivo; settings: applied alone
Experimental: as §3, §4, §5

[6] = tested on: wild oat (AVEFA, Avena fatua); assay: as above; type: in vivo; settings: applied alone
Experimental: as §3, §4, §5

Q: For “4-[3-(4-chlorophenyl)-5-methyl-1H-pyrazol-3-yl]-5-hydroxy-2-methyl-3(2H)-pyridazinone [Compound 3]”, which “TRZAW Obsd. (observed effect) plant response rating, scale 0 to 100” value ([1]; postemergence, 4 g a.i./ha) is on record?
A: 0

Q: And the “TRZAW Obsd. (observed effect) plant response rating, scale 0 to 100” value ([1]; postemergence, 8 g a.i./ha)?
A: 0

Q: And the “TRZAW Obsd. (observed effect) plant response rating, scale 0 to 100” value ([1]; postemergence, 16 g a.i./ha)?
A: 22

Q: And the “TRZAW Obsd. (observed effect) plant response rating, scale 0 to 100” value ([1]; preemergence, 4 g a.i./ha)?
A: 0

Q: And the “TRZAW Obsd. (observed effect) plant response rating, scale 0 to 100” value ([1]; preemergence, 8 g a.i./ha)?
A: 33

Q: And the “TRZAW Obsd. (observed effect) plant response rating, scale 0 to 100” value ([1]; preemergence, 16 g a.i./ha)?
A: 77

Q: And the “HORVX Obsd. (observed effect) plant response rating, scale 0 to 100” value ([2]; postemergence, 4 g a.i./ha)?
A: 0

Q: And the “HORVX Obsd. (observed effect) plant response rating, scale 0 to 100” value ([2]; postemergence, 8 g a.i./ha)?
A: 0

Q: What about the “HORVX Obsd. (observed effect) plant response rating, scale 0 to 100” value ([2]; postemergence, 16 g a.i./ha) of the same compound?
A: 15

Q: And the “HORVX Obsd. (observed effect) plant response rating, scale 0 to 100” value ([2]; preemergence, 4 g a.i./ha)?
A: 10

Q: And the “HORVX Obsd. (observed effect) plant response rating, scale 0 to 100” value ([2]; preemergence, 8 g a.i./ha)?
A: 32

Q: What about the “HORVX Obsd. (observed effect) plant response rating, scale 0 to 100” value ([2]; preemergence, 16 g a.i./ha) of the same compound?
A: 68

Q: And the “AVEFA Obsd. (observed effect) plant response rating, scale 0 to 100” value ([3]; postemergence, 4 g a.i./ha)?
A: 27

Q: And the “AVEFA Obsd. (observed effect) plant response rating, scale 0 to 100” value ([3]; postemergence, 8 g a.i./ha)?
A: 67

Q: And the “AVEFA Obsd. (observed effect) plant response rating, scale 0 to 100” value ([3]; postemergence, 16 g a.i./ha)?
A: 83

Q: What about the “AVEFA Obsd. (observed effect) plant response rating, scale 0 to 100” value ([3]; preemergence, 4 g a.i./ha) of the same compound?
A: 0

Q: What about the “AVEFA Obsd. (observed effect) plant response rating, scale 0 to 100” value ([3]; preemergence, 8 g a.i./ha) of the same compound?
A: 35

Q: And the “AVEFA Obsd. (observed effect) plant response rating, scale 0 to 100” value ([3]; preemergence, 16 g a.i./ha)?
A: 60

Q: Which results are given for `CCc1cc(-c2ccc(C(F)(F)F)cc2)nn1-c1c(O)cnn(C)c1=O` [Compound 11, 4-[5-ethyl-3-[4-(trifluoromethyl)phenyl]-1H-pyrazol-1-yl]-5-hydroxy-2-methyl-3(2H)-pyridazinone]?
A: melting point: 202 to 204 °C; TRZAW Obsd. (observed effect) plant response rating, scale 0 to 100 ([1]; postemergence, 4 g a.i./ha): 18; TRZAW Obsd. (observed effect) plant response rating, scale 0 to 100 ([1]; postemergence, 8 g a.i./ha): 3; TRZAW Obsd. (observed effect) plant response rating, scale 0 to 100 ([1]; postemergence, 16 g a.i./ha): 32; TRZAW Obsd. (observed effect) plant response rating, scale 0 to 100 ([1]; preemergence, 4 g a.i./ha): 32; TRZAW Obsd. (observed effect) plant response rating, scale 0 to 100 ([1]; preemergence, 8 g a.i./ha): 72; TRZAW Obsd. (observed effect) plant response rating, scale 0 to 100 ([1]; preemergence, 16 g a.i./ha): 92; HORVX Obsd. (observed effect) plant response rating, scale 0 to 100 ([2]; postemergence, 4 g a.i./ha): 5; HORVX Obsd. (observed effect) plant response rating, scale 0 to 100 ([2]; postemergence, 8 g a.i./ha): 55; HORVX Obsd. (observed effect) plant response rating, scale 0 to 100 ([2]; postemergence, 16 g a.i./ha): 90; HORVX Obsd. (observed effect) plant response rating, scale 0 to 100 ([2]; preemergence, 4 g a.i./ha): 22; HORVX Obsd. (observed effect) plant response rating, scale 0 to 100 ([2]; preemergence, 8 g a.i./ha): 70; HORVX Obsd. (observed effect) plant response rating, scale 0 to 100 ([2]; preemergence, 16 g a.i./ha): 92; AVEFA Obsd. (observed effect) plant response rating, scale 0 to 100 ([3]; postemergence, 4 g a.i./ha): 75; AVEFA Obsd. (observed effect) plant response rating, scale 0 to 100 ([3]; postemergence, 8 g a.i./ha): 97; AVEFA Obsd. (observed effect) plant response rating, scale 0 to 100 ([3]; postemergence, 16 g a.i./ha): 98; AVEFA Obsd. (observed effect) plant response rating, scale 0 to 100 ([3]; preemergence, 4 g a.i./ha): 58; AVEFA Obsd. (observed effect) plant response rating, scale 0 to 100 ([3]; preemergence, 8 g a.i./ha): 77; AVEFA Obsd. (observed effect) plant response rating, scale 0 to 100 ([3]; preemergence, 16 g a.i./ha): 93

Q: For `CCc1c(C)c(-c2ccc(Cl)cc2)nn1-c1c(O)cnn(C)c1=O` [Compound 26, 4-[3-(4-chlorophenyl)-5-ethyl-4-methyl-1H-pyrazol-1-yl]-5-hydroxy-2-methyl-3(2H)-pyridazinone], which melting point is on record?
A: 227 to 229 °C

Q: What about the “TRZAW Obsd. (observed effect) plant response rating, scale 0 to 100” value ([4]; 62 g a.i./ha) of the same compound?
A: 10

Q: And the “TRZAW Obsd. (observed effect) plant response rating, scale 0 to 100” value ([4]; 125 g a.i./ha)?
A: 9

Q: And the “TRZAW Obsd. (observed effect) plant response rating, scale 0 to 100” value ([4]; 250 g a.i./ha)?
A: 36

Q: What about the “HORVX Obsd. (observed effect) plant response rating, scale 0 to 100” value ([5]; 62 g a.i./ha) of the same compound?
A: 19

Q: What about the “HORVX Obsd. (observed effect) plant response rating, scale 0 to 100” value ([5]; 125 g a.i./ha) of the same compound?
A: 34

Q: What about the “HORVX Obsd. (observed effect) plant response rating, scale 0 to 100” value ([5]; 250 g a.i./ha) of the same compound?
A: 45

Q: And the “AVEFA Obsd. (observed effect) plant response rating, scale 0 to 100” value ([6]; 62 g a.i./ha)?
A: 89

Q: And the “AVEFA Obsd. (observed effect) plant response rating, scale 0 to 100” value ([6]; 125 g a.i./ha)?
A: 97

Q: And the “AVEFA Obsd. (observed effect) plant response rating, scale 0 to 100” value ([6]; 250 g a.i./ha)?
A: 99
